# Experimental data taken from US20240383955A1, “MODIFIED ANTIMICROBIAL PEPTIDES” (priority 2021, published 2024).
# Bridge positions count the residues as written; N and C are the ends. Square brackets hold non-standard residues; d marks the D form. Ends that are not written are not given here. Peptide text beside a SMILES is read from it. Dab = NCC[C@H](N)C(=O)O
# How the values were obtained:
# B. cinerea [1] = assay: Semi-in planta drop inoculation assay on detached leaves of N. benthamiana, gray mold symptoms; format: in vivo, B. cinerea on N. benthamiana; details: 48 h; for effectiveness in reducing gray mold disease symptoms: peptide tested at 1.5 μM, 3 μM and 6 μM
# Botrytis cinerea = details: Table 18
# B. cinerea [2] = assay: In vitro antifungal activity (MIC) in SFM culture media, with or without added salts; details: SFM + 2 mM CaCl2; Table 10
Compound,gray mold symptoms (B. cinerea [1]; peptide at 3 μM and 6 μM),MIC (SFM + 2 mM CaCl2) (Botrytis cinerea),MIC (SFM + 100 mM KCl) (Botrytis cinerea),MIC (SFM + 100 mM NaCl) (Botrytis cinerea),MIC SFM (Botrytis cinerea),also measured
CC[C@H](C)[C@H](NC(=O)[C@H](CCCNC(=N)N)NC(=O)[C@H](CS)NC(=O)[C@H](CCCNC(=N)N)NC(=O)CNC(=O)[C@@H](N)CO)C(=O)N[C@@H](CC(C)C)C(=O)N[C@@H](Cc1ccccc1)C(=O)N[C@@H](CCCNC(=N)N)C(=O)N[C@@H](CS)C(=O)N[C@@H](Cc1ccccc1)C(=O)N[C@@H](CS)C(=O)N[C@H](C(=O)N[C@@H](CCCCN)C(=O)N[C@@H](CC(N)=O)C(=O)N[C@@H](CS)C(N)=O)[C@@H](C)O [GMA1C_V1] (H-SGRCRILFRCFCTKNC-NH2; N-terminus assumed),,,,,,gray mold symptoms (B. cinerea [1]): failed to reduce disease symptoms
CC[C@H](C)[C@@H]1NC(=O)[C@H](CCCNC(=N)N)NC(=O)[C@@H](NC(=O)[C@H](CCCNC(=N)N)NC(=O)CNC(=O)[C@@H](N)CO)CSSC[C@@H](C(N)=O)NC(=O)[C@H](CC(N)=O)NC(=O)[C@H](CCCCN)NC(=O)[C@H]([C@@H](C)O)NC(=O)[C@H](Cc2c[nH]c3ccccc23)NC(=O)[C@H](Cc2ccccc2)NC(=O)[C@H](Cc2c[nH]c3ccccc23)NC(=O)[C@H](CCCNC(=N)N)NC(=O)[C@H](Cc2ccccc2)NC(=O)[C@H](CC(C)C)NC1=O [GMA1C_V2] (H-SGRCRILFRWFWTKNC-NH2; disulfide 4-16),completely abrogated gray mold symptoms,3 µM,>12 µM,3 µM,1.5 to 3 µM,"reducing the symptoms of gray mold, comparison of peptides (B. cinerea [1]; peptide at 1.5 μM): more effective than GMA1C_V1"
CC[C@H](C)[C@@H]1NC(=O)[C@H](CCCNC(=N)N)NC(=O)[C@@H](NC(=O)[C@H](CCCNC(=N)N)NC(=O)CNC(=O)[C@@H](N)CO)CSSC[C@@H](C(N)=O)NC(=O)[C@H](CC(N)=O)NC(=O)[C@H](CCCCN)NC(=O)[C@H]([C@@H](C)O)NC(=O)[C@H](Cc2ccccc2)NC(=O)[C@H](Cc2ccc(O)cc2)NC(=O)[C@H](Cc2c[nH]c3ccccc23)NC(=O)[C@H](CCCNC(=N)N)NC(=O)[C@H](Cc2ccccc2)NC(=O)[C@H](CC(C)C)NC1=O [GMA1C_V3] (H-SGRCRILFRWYFTKNC-NH2; disulfide 4-16),,6 µM,>12 µM,3 µM,1.5 µM,
C[C@@H](O)[C@H](NC(=O)[C@H](CS)NC(=O)[C@H](Cc1ccccc1)NC(=O)[C@H](CS)NC(=O)[C@H](CCCNC(=N)N)NC(=O)[C@H](CCCNC(=N)N)NC(=O)[C@H](CCCNC(=N)N)NC(=O)[C@H](Cc1ccccc1)NC(=O)CNC(=O)[C@H](CCCNC(=N)N)NC(=O)[C@H](CS)NC(=O)[C@H](CCCNC(=N)N)NC(=O)CN)C(=O)N[C@H](C(=O)N[C@@H](Cc1c[nH]cn1)C(=O)N[C@@H](CS)C(=O)O)[C@@H](C)O [GMA4AC] (H-GRCRGFRRRCFCTTHC-OH; N-terminus and C-terminus assumed),,,,,,MIC Fusarium graminearum (F. graminearum): 6 µM
"NCC[C@H](NC(=O)CNC(=O)[C@@H](N)Cc1ccccc1)C(=O)N[C@@H](CS)C(=O)N[C@@H](CCN)C(=O)NCC(=O)N[C@@H](Cc1ccccc1)C(=O)N[C@@H](CCN)C(=O)N[C@@H](CCN)C(=O)N[C@@H](CCN)C(=O)N[C@@H](CS)C(=O)N[C@@H](Cc1ccccc1)C(=O)N[C@@H](CS)C(=O)N[C@@H](Cc1c[nH]c2ccccc12)C(=O)N[C@@H](CCN)C(=O)N[C@@H](Cc1c[nH]c2ccccc12)C(=O)N[C@@H](CS)C(=O)O [GMA4C_V5, FG(Dab)C(Dab)GF(Dab)(Dab)(Dab)CFCW(Dab)WC] (H-FG[Dab]C[Dab]GF[Dab][Dab][Dab]CFCW[Dab]WC-OH; N-terminus assumed)",,,,,,SFM + 2 mM CaCl2 MIC (B. cinerea [2]): >6 (very μM
CC[C@H](C)[C@@H]1NC(=O)[C@H](CCCNC(=N)N)NC(=O)[C@H]([C@@H](C)O)NC(=O)[C@H](Cc2ccccc2)NC(=O)[C@H](Cc2c[nH]c3ccccc23)NC(=O)[C@H](Cc2ccccc2)NC(=O)[C@H](CCCNC(=N)N)NC(=O)[C@H](CCCNC(=N)N)NC(=O)[C@H](CC(C)C)NC(=O)[C@H](Cc2ccccc2)NC(=O)CNC(=O)[C@H](CCCCN)NC(=O)[C@@H](NC(=O)[C@H](CCCNC(=N)N)NC(=O)CNC(=O)CN)CSSC[C@@H](C(N)=O)NC1=O [GMA4C_V9] (H-GGRCKGFLRRFWFTRIC-NH2; disulfide 4-17),,12 µM,6 to 12 µM,3 µM,3 µM,effectiveness in reducing gray mold disease symptoms (B. cinerea [1]): effective in reducing gray mold disease symptoms
CC[C@H](C)[C@@H]1NC(=O)[C@H](CCCNC(=N)N)NC(=O)[C@H]([C@@H](C)O)NC(=O)[C@H](Cc2c[nH]c3ccccc23)NC(=O)[C@H](Cc2ccc(O)cc2)NC(=O)[C@H](Cc2c[nH]c3ccccc23)NC(=O)[C@H](CCCNC(=N)N)NC(=O)[C@H](CCCNC(=N)N)NC(=O)[C@H](CCCNC(=N)N)NC(=O)[C@H](Cc2ccccc2)NC(=O)CNC(=O)[C@H](CCCCN)NC(=O)[C@@H](NC(=O)[C@H](CCCNC(=N)N)NC(=O)CNC(=O)CN)CSSC[C@@H](C(N)=O)NC1=O [GMA4C_V10] (H-GGRCKGFRRRWYWTRIC-NH2; disulfide 4-17; N-terminus assumed),,3 µM,3 to 6 µM,3 µM,3 µM,"reducing the symptoms of gray mold, comparison of peptides (B. cinerea [1]; peptide at 1.5 μM and 3 μM): more effective in reducing the symptoms of gray mold than GMA4C_V9; gray mold symptoms (B. cinerea [1]; peptide at 6 μM): completely abrogates gray mold symptoms; effectiveness in reducing gray mold disease symptoms (B. cinerea [1]): effective in reducing gray mold disease symptoms"
C[C@H](NC(=O)CN)C(=O)N[C@H]1CSSC[C@@H](C(N)=O)NC(=O)[C@H](CCCCN)NC(=O)[C@H](CCCCN)NC(=O)[C@H](Cc2ccc(O)cc2)NC(=O)[C@H](Cc2c[nH]c3ccccc23)NC(=O)[C@H](Cc2ccccc2)NC(=O)[C@H](Cc2c[nH]c3ccccc23)NC(=O)[C@H](C)NC(=O)[C@H](Cc2ccccc2)NC(=O)CNC(=O)[C@H](Cc2ccccc2)NC(=O)CNC(=O)[C@H](CCC(N)=O)NC(=O)[C@H](CCCNC(=N)N)NC(=O)[C@H](Cc2c[nH]cn2)NC1=O [GMA5CA_V3] (H-GACHRQGFGFAWFWYKKC-NH2; disulfide 3-18),,>12 µM,>12 µM,>12 µM,3 µM,
C[C@H](NC(=O)CN)C(=O)N[C@H]1CSSC[C@@H](C(N)=O)NC(=O)[C@H](CCCCN)NC(=O)[C@H](CCCCN)NC(=O)[C@H](Cc2ccc(O)cc2)NC(=O)[C@H](Cc2ccccc2)NC(=O)[C@H](Cc2ccccc2)NC(=O)[C@H](Cc2ccccc2)NC(=O)[C@H](C)NC(=O)[C@H](Cc2ccccc2)NC(=O)CNC(=O)[C@H](Cc2ccccc2)NC(=O)CNC(=O)[C@H](CCC(N)=O)NC(=O)[C@H](CCCNC(=N)N)NC(=O)[C@H](Cc2c[nH]cn2)NC1=O [GMA5CA_V4] (H-GACHRQGFGFAFFFYKKC-NH2; disulfide 3-18),,>12 µM,>12 µM,>12 µM,3 µM,
CC(C)C[C@@H]1NC(=O)[C@@H](NC(=O)[C@H](C)NC(=O)CN)CSSC[C@@H](C(=O)N[C@@H](Cc2ccc(O)cc2)C(N)=O)NC(=O)[C@H](Cc2c[nH]cn2)NC(=O)[C@H](CCCNC(=N)N)NC(=O)[C@H](Cc2ccc(O)cc2)NC(=O)[C@H](Cc2ccc(O)cc2)NC(=O)[C@H](Cc2c[nH]c3ccccc23)NC(=O)[C@H](Cc2ccccc2)NC(=O)[C@H](Cc2c[nH]c3ccccc23)NC(=O)CNC(=O)[C@H](Cc2ccc(O)cc2)NC(=O)[C@H](Cc2c[nH]cn2)NC(=O)[C@H](CCCCN)NC(=O)[C@H](CO)NC(=O)[C@H](Cc2c[nH]cn2)NC(=O)[C@H](CCCNC(=N)N)NC(=O)[C@H](CC(N)=O)NC(=O)[C@H](CCCCN)NC1=O [GMAOe1C_V3] (H-GACLKNRHSKHYGWFWYYRHCY-NH2; disulfide 3-21),completely abrogated gray mold symptoms,3 to 6 µM,6 to 12 µM,2 to 3 µM,1.5 µM,"reducing the symptoms of gray mold, comparison of peptides (B. cinerea [1]; peptide at 1.5 μM): more effective than GMAOe1C_V4 or GMAOe1C_WT"
CC(C)C[C@@H]1NC(=O)[C@@H](NC(=O)[C@H](C)NC(=O)CN)CSSC[C@@H](C(=O)N[C@@H](Cc2ccc(O)cc2)C(N)=O)NC(=O)[C@H](Cc2c[nH]cn2)NC(=O)[C@H](CCCNC(=N)N)NC(=O)[C@H](Cc2ccc(O)cc2)NC(=O)[C@H](Cc2ccc(O)cc2)NC(=O)[C@H](Cc2c[nH]c3ccccc23)NC(=O)[C@H](Cc2ccccc2)NC(=O)[C@H](Cc2ccccc2)NC(=O)CNC(=O)[C@H](Cc2ccc(O)cc2)NC(=O)[C@H](Cc2c[nH]cn2)NC(=O)[C@H](CCCCN)NC(=O)[C@H](CO)NC(=O)[C@H](Cc2c[nH]cn2)NC(=O)[C@H](CCCNC(=N)N)NC(=O)[C@H](CC(N)=O)NC(=O)[C@H](CCCCN)NC1=O [GMAOe1C_V4] (H-GACLKNRHSKHYGFFWYYRHCY-NH2; disulfide 3-21),completely abrogated gray mold symptoms,6 to 12 µM,6 to 12 µM,6 µM,1.5 µM,
"CC(C)C[C@H](NC(=O)[C@H](CS)NC(=O)[C@H](C)NC(=O)CN)C(=O)N[C@@H](CCCCN)C(=O)N[C@@H](CC(N)=O)C(=O)N[C@@H](CCCNC(=N)N)C(=O)N[C@@H](Cc1c[nH]cn1)C(=O)N[C@@H](CO)C(=O)N[C@@H](CCCCN)C(=O)N[C@@H](Cc1c[nH]cn1)C(=O)N[C@@H](Cc1ccc(O)cc1)C(=O)NCC(=O)N[C@@H](CS)C(=O)N[C@@H](Cc1ccc(O)cc1)C(=O)N[C@@H](CS)C(=O)N[C@@H](Cc1ccc(O)cc1)C(=O)N[C@@H](Cc1ccc(O)cc1)C(=O)N[C@@H](CCCNC(=N)N)C(=O)N[C@@H](Cc1c[nH]cn1)C(=O)N[C@@H](CS)C(=O)N[C@@H](Cc1ccc(O)cc1)C(N)=O [GMAOe1C_WT, reference compound] (H-GACLKNRHSKHYGCYCYYRHCY-NH2; N-terminus assumed)",,,,,,effectiveness in reducing gray mold disease symptoms (B. cinerea [1]): only effective at 6 μM
GACLKNRHSKHYGWFWYYRHCY-NH2 (disulfide 3-21 (inferred)) [GMAOe1C_V2],completely abrogated gray mold symptoms,,,,,
